These results are taken from patent US12187705B2, “Heteroaryl-triazole and heteroaryl-tetrazole compounds as pesticides” (Bayer Aktiengesellschaft, priority 2018, dated 2025).

Each structure is given as a SMILES string.

Holding throughout (type): in vivo
The subject of assay [1] is Nilaparvata lugens. The assay can be described thus: Nilaparvata lugens spray test. The note with it: Nilaparvata lugens, in Oryza sativa, 96 h. In short, it runs like this: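 Rice plants sprayed with compound diluted in water containing 1000 ppm emulsifier, then infested with brown planthopper. Mortality (%) scored after 4 days, 100% meaning all insects killed.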
The subject of assay [2] is Culex quinquefasciatus strain P00. The experiment in a line: Culex quinquefasciatus test (CULXFA surface treatment & contact assay). The following applies: 24 hours after contact, read-out: efficacy (mortality); for mortality at 4 mg/m2: surface concentration 4 mg/m^2, 30 minutes exposure; for mortality at 20 mg/m2: surface concentration 20 mg/m^2, 30 minutes exposure. In outline: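 Compound dissolved in acetone (2 mg/ml) with 2000 ppm rapeseed oil methyl ester, applied to glazed tile and dried. Adult strain P00 mosquitoes exposed to the surface for 30 minutes. Percent mortality scored 24 hours after contact.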

Assay [3] concerns Boophilus microplus. The assay can be described thus: Boophilus microplus injection test. The following applies: Rhipicephalus microplus, 168 h, 20 μg/animal, egg deposition after 7 days, read-out: efficacy (infertile eggs). In outline:
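Efficacy expresses the share of infertile eggs (100% all infertile, 0% all fertile), judged at 7 days or at hatching around day 42. Five adult engorged females were each injected abdominally with 1 μl of DMSO compound solution and incubated in a climate chamber.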

Assay [4] relates to Spodoptera frugiperda. The assay can be described thus: Spodoptera frugiperda spray test. The following applies: in Zea mays, 168 h. In short, it runs like this: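 Percent larval kill read at day 7 on Zea mays leaf pieces that were spray-treated and, after drying, infested. Spray preparations made by dilution with emulsifier-containing water (1000 ppm).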
In assay [5] the test system is Aedes aegypti strain MONHEIM. The assay can be described thus: Aedes aegypti test (AEDSAE surface treatment & contact assay). The note with it: 24 hours after contact, read-out: efficacy (mortality); for mortality at 4 mg/m2: surface concentration 4 mg/m^2, 30 minutes exposure; for mortality at 20 mg/m2: surface concentration 20 mg/m^2, 30 minutes exposure. In outline:
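Compound dissolved in acetone (2 mg/ml) with 2000 ppm rapeseed oil methyl ester and dried onto a glazed tile. Adult mosquitoes held on the treated surface for 30 minutes exposure. Percent mortality scored 24 hours after contact.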

The test system of assay [6] is Tetranychus urticae. The experiment in a line: Tetranychus urticae spray test OP-resistant. The note with it: Tetranychus urticae, foliar, 144 h, French bean leaf disks, after 6 days. On the procedure:
Tetranychus urticae—Spray Test OP-Resistant
To produce a suitable preparation of active compound, 1 part by weight of active compound is mixed with the stated amount of solvents and is diluted with water, containing an emulsifier concentration of 1000 ppm, to the desired concentration. Further test concentrations are prepared by dilution with emulsifier containing water.
French bean (Phaseolus vulgaris) leaf disks infected with all instars of the two spotted spidermite (Tetranychus urticae), are sprayed with a preparation of the active ingredient of the desired concentration.
After 6 days mortality in % is determined. 100% means all spider mites have been killed and 0% means none of the spider mites have been killed.

The subject of assay [7] is Ctenocephalides felis. The experiment in a line: Ctenocephalides felis oral test. The following applies: Ctenocephalides felis, in Bos taurus, po, 48 h. In outline:
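About 20 adult unfed fleas fed through parafilm on cattle blood containing compound (DMSO concentrate diluted in blood); blood held at 37° C., fleas at room temperature. Mortality in % scored after 2 days (100% = all killed).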

Assay [8] concerns Myzus persicae. The assay can be described thus: Myzus persicae spray test. The following applies: in Brassica rapa, foliar, 120 h. In short, it runs like this:
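Percent kill was recorded 5 days after spraying. Test solutions, prepared with solvent and diluted in 1000 ppm emulsifier water, were applied to Brassica pekinensis leaf disks carrying mixed-instar green peach aphids.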

Assay [9] relates to Ctenocephalides felis. The experiment in a line: Ctenocephalides felis in-vitro contact test adult cat flea. The following applies: Ctenocephalides felis; 5 μg/cm^2 (=500 g/ha), after 48 hours; read-out: efficacy (fleas dead or moribund). In outline:
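Efficacy (% dead or moribund) was scored 48 h after adult Ctenocephalides felis were confined in tubes coated with the acetone-applied compound (900 ppm, 5 μg/cm^2). Moribund status was judged by failure to escape a 45-50° C heating plate within 5 minutes.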

For assay [10], the system named is Diabrotica balteata. The assay can be described thus: Diabrotica balteata spray test. The following applies: Diabrotica balteata, 168 h; 160 μg/well, wheat seeds, after 7 days; read-out: efficacy (seedlings grown). In outline: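 Efficacy (%) read 7 days after infesting treated seedlings with 10-20 banded cucumber beetle larvae, 100% meaning growth as in uninfected untreated control and 0% no growth. Test solutions in water containing 1000 ppm emulsifier were sprayed onto wheat seeds germinated for 1 day on agar.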

As usually defined, the mortality is the share of the test organisms that died.

Regarding `CCN(C(=O)c1cc(Cl)cc(S(C)(=O)=O)c1)C(C)c1ncnn1-c1ncccn1` (stereo not drawn) [Example I-040, 3-chloro-N-ethyl-5-(methylsulfonyl)-N-{1-[1-(pyrimidin-2-yl)-1H-1,2,4-triazol-5-yl]ethyl}benzamide], the mortality at 500 g/ha in assay [1] was 100%; in [4], 100%; in assay [6] it was 90%; in [8] it was 90%. The mortality at 4 mg/m2 in [2] and in [5] was 80 to 100% each time. Besides, the mortality at 20 mg/m2 in [2] fell in the range of 80 to 100%; in assay [5] it was 90 to 100%. The pest or weed control at 0.02 mg in assay [3] came out at 100%. For the same compound, the mortality at 100 ppm in [7] is 100%. The pest or weed control at 5 µg/cm2, 5 µg/cm2 in assay [9] amounted to 100%. Further, in assay [10], the pest or weed control at 160 µg/disc, 160 µg/well was found to be 100%.

In the case of `C[C@@H](NC(=O)c1cc(Cl)cc(S(=O)(=O)C2CC2)c1)c1ncnn1-c1ncccn1` [Example I-042], the mortality at 500 g/ha amounted to 100% in [1], 83% in [4], 90% in [6] and 90% in assay [8]. For the same compound, the mortality at 4 mg/m2 in assay [2] and in assay [5] was 80 to 100% in each case. For the same compound, the values for the mortality at 20 mg/m2 in assay [2] and in [5] were 80 to 100% and 90 to 100%, respectively. In addition, the pest or weed control at 0.02 mg in [3] was found to be 100%. The same compound had a mortality at 100 ppm in assay [7] of 100%. In assay [9], the pest or weed control at 5 µg/cm2, 5 µg/cm2 came out at 100%. Further, the pest or weed control at 160 µg/disc, 160 µg/well in assay [10] came out at 100%.
